Data published in US9017938B2, “Use of microrna-199b-5p in medical and diagnostic field” (Advanced Accelerator Applications, priority 2009, dated 2015).

What was measured:
[1] = system: MB cell lines; experiment: AZA treatment, miR-199b-5p expression by real-time PCR; format: cell-based; conditions: two cell lines (Med8 and UV238) of a panel of five; 5 μM, 72 h
Method: Five MB cell lines (d283, Daoy, med8a, ons76, uw228) were grown in DMEM supplemented with 10% FBS and antibiotics. Upon reaching 85% confluence, the media was spiked with 5-aza-deoxycytidine (AZA) (Sigma) to a final concentration of 5 μM. Over 72 h the media was replaced daily with fresh AZA-enhanced medium. RNA was extracted using a standard phenol (TRIzol)-chloroform protocol.

[2] = system: Daoy cell line; experiment: DAPT treatment, stem-cell gene expression by real-time PCR; format: cell-based, human; conditions: Daoy + DAPT 12 h
Method: Total RNA was extracted from the cell lines using the Trizol reagent (Invitrogen). Synthesis of cDNA from total RNA (4 μg) was performed using a Super Script II First Strand Kit (Invitrogen). Real-time quantitative PCR was performed using standard protocols with an Applied Biosystems ABI PRISM 7900HT Sequence Detection system. To calculate the relative gene expression of the miR-199b-5p precursor, the relative amounts of each pre-miRNA were normalized to U6 miRNA; the other genes were normalized using the β-actin gene. Real-time PCR primers for each gene were designed using Primer Express software version 2.0 (Applied Biosystems). The primer sequences are available upon request.
(§1) N—[N-(3,5-difluorophenacetyl)-l-alanyl]-S-phenylglycine t-butylester (DAPT (Sigma-Aldrich) treatment of the Daoy cells was performed as follows: the cells were plated and allowed to grow overnight in medium containing 10% FBS. The next morning, the medium was replaced with medium containing 10 μM DAPT and replaced each 4 h with this medium. The expression assays was performed after 0, 6, 12, 24 h of treatment […], using control experiments including the corresponding volume of DMSO as vehicle.

[3] = system: HES1; experiment: Western blotting of HES1 protein; format: cell-based, human; conditions: Daoy cell line, DAPT 12 h
Method: Thirty μg cytosolic or nuclear lysates were loaded onto 12% polyacrilamide gels, and blotted onto polyvinylidene difluoride membranes (PVDF; BioRad, Milan, Italy). The membranes were then incubated with anti-HES1 (kind gift of Dr. Tetsuo Sudo TORAY Industries, Tebiro Kamakura, Japan), a polyclonal rabbit antibody (1:500), an anti-GSK3-β (B&D Bioscience) monoclonal antibody (1:2500), an anti-c-Myc polyclonal rabbit antibody (1:200) (Santa Cruz Biotechnology, Santa Cruz, Calif., USA), an anti-GABRA6 antibody (Santa Cruz Biotechnology, Santa Cruz, USA) (1:200), an anti-MATH3 antibody (Santa Cruz Biotechnology, Santa Cruz, USA) (1:200) and an anti-cyclin D1 (1:200) polyclonal rabbit antibody (Cell Signaling). An anti-β-actin antibody (1:1.000) (Sigma) was used as the control for equal loading of cytosolic lysates and a polyclonal anti-β-laminin antibody (1:50) (Santa Cruz Biotechnology, Santa Cruz, Calif., USA) for equal loading of nuclear lysates.

[4] = system: Daoy cell line; experiment: DAPT treatment, miR-199b expression by real-time PCR; format: cell-based, human; conditions: 10 μM DAPT, 12 h, relative to time 0
Method: The reverse transcriptase (RT) reactions contained 40 ng RNA sample, 50 nM stem-loop RT primer, 1×RT buffer (P/N:4319981, Applied Biosystems), 0.25 mM each of dNTPs, […] MultiScribe RT (P/N: 4319983, Applied Biosystems) and […] RNase inhibitor (P/N: N8080119; Applied Biosystems). The 15 μl reactions were incubated in an Applied Biosystems 9700 Thermocycler for 30 min at 16° C., 30 min at 42° C., 5 min at 85° C., and then held at 4° C.
Real-time PCR was performed using a standard TaqMan PCR kit protocol on an Applied Biosystems 7900HT Sequence Detection System. The 20 μl PCR mix included 2 μl RT product, 10 μl TaqMan Universal PCR Master Mix (Applied Biosystems), […] TaqMan probe. The reactions were incubated in a 96-well plate at 95° C. for 10 min, followed by 60 cycles of 95° C. for 15 s and 60° C. for 1 min.
as §1

Structure (SMILES)	miR-199b-5p expression [1]	CD 133 expression 2^-DCt [2]	HMGA1 expression 2^-DCt [2]	HMGB3 expression 2^-DCt [2]	ILF3 expression 2^-DCt [2]	KLF5 expression 2^-DCt [2]	MYBL2 expression 2^-DCt [2]	Nanog expression 2^-DCt [2]	Oct4 expression 2^-DCt [2]	PDGFR-A expression 2^-DCt [2]	PDGFR-B expression 2^-DCt [2]	SPARC expression 2^-DCt [2]	TCF7L1 expression 2^-DCt [2]	TEAD4 expression 2^-DCt [2]	ZIC1 expression 2^-DCt [2]	c-Myc expression 2^-DCt [2]	HES1 protein (Western blot) [3]	increase of miR-199b-5p level [4]
Nc1ncn([C@H]2C[C@H](O)[C@@H](CO)O2)c(=O)n1 [5-aza-deoxycytidine]	significant up-regulation	–	–	–	–	–	–	–	–	–	–	–	–	–	–	–	–	–
C[C@H](NC(=O)Cc1cc(F)cc(F)c1)C(=O)N[C@H](C(=O)OC(C)(C)C)c1ccccc1 [DAPT, N—[N-(3,5-difluorophenacetyl)-l-alanyl]-S-phenylglycine t-butylester]	–	0.001237	0.004879	0.005577	0.04252	0.02368	0.003932	0.0004488	0.0007941	0.0000015	0.0000606	0.07977	0.0001026	0.005176	0.0002784	0.05427	down-regulation	9 fold
